# Columns and labels:
# Assay type in all cases: functional
# Candida albicans [1] = test: Antimicrobial activity against Candida albicans DSM 70014 after 48 hr by two-fold serial broth dilution method; conditions: DSM 70014, 48 h
# Pseudomonas aeruginosa [2] = test: Ratio of ampicillin MIC to compound MIC for Pseudomonas aeruginosa ATCC 10145 after 48 hr by two-fold serial broth dilution method
# Bacillus subtilis = test: Antimicrobial activity against Bacillus subtilis ATCC 6633 after 48 hr by two-fold serial broth dilution method; conditions: ATCC 6633, 48 h
# HOP-92 = test: Growth inhibition of Homo sapiens (human) HOP92 cells at 10 uM after 48 hr by SRB assay; conditions: HOP-92, 48 h, read-out: GI
# Staphylococcus aureus [3] = test: Antimicrobial activity against Staphylococcus aureus DSM 1104 after 48 hr by two-fold serial broth dilution method; conditions: DSM 1104, 48 h
# Escherichia coli = test: Antimicrobial activity against Escherichia coli ATCC 11775 after 48 hr by two-fold serial broth dilution method; conditions: ATCC 11775, 48 h
# Pseudomonas aeruginosa [4] = test: Antimicrobial activity against Pseudomonas aeruginosa ATCC 10145 after 48 hr by two-fold serial broth dilution method; conditions: ATCC 10145, 48 h
# Candida albicans [5] = test: Antimicrobial activity against Candida albicans DSM 70014 after 48 hr by two-fold serial broth dilution method relative to clotrimazole
# Staphylococcus aureus [6] = test: Antimicrobial activity against Staphylococcus aureus DSM 1104 after 48 hr by two-fold serial broth dilution method relative to ampicillin
# K562 = test: Growth inhibition of Homo sapiens (human) K562 cells at 10 uM after 48 hr by SRB assay; conditions: K562, 48 h, read-out: GI
# CAKI-1 = test: Growth inhibition of Homo sapiens (human) CAKI-1 cells at 10 uM after 48 hr by SRB assay; conditions: CAKI-1, 48 h, read-out: GI
# RXF 393 = test: Growth inhibition of Homo sapiens (human) RXF393 cells at 10 uM after 48 hr by SRB assay; conditions: RXF 393, 48 h, read-out: GI
# HCT-116 = test: Growth inhibition of Homo sapiens (human) HCT116 cells at 10 uM after 48 hr by SRB assay; conditions: HCT-116, 48 h, read-out: GI
# PC-3 = test: Growth inhibition of Homo sapiens (human) PC3 cells at 10 uM after 48 hr by SRB assay; conditions: PC-3, 48 h, read-out: GI
# ACHN = test: Growth inhibition of Homo sapiens (human) ACHN cells at 10 uM after 48 hr by SRB assay; conditions: read-out: GI
# EKVX = test: Growth inhibition of Homo sapiens (human) EKVX cells at 10 uM after 48 hr by SRB assay; conditions: read-out: GI
# MDA-MB-435 = test: Growth inhibition of Homo sapiens (human) MDA-MB-435 cells at 10 uM after 48 hr by SRB assay; conditions: MDA-MB-435, 48 h, read-out: GI
# IGROV-1 = test: Growth inhibition of Homo sapiens (human) IGROV1 cells at 10 uM after 48 hr by SRB assay; conditions: IGROV-1, 48 h, read-out: GI
# A549 = test: Growth inhibition of Homo sapiens (human) A549/ATCC cells at 10 uM after 48 hr by SRB assay; conditions: A549, 48 h, read-out: GI
# SR = test: Growth inhibition of Homo sapiens (human) SR cells at 10 uM after 48 hr by SRB assay; conditions: read-out: GI
# M14 = test: Growth inhibition of Homo sapiens (human) M14 cells at 10 uM after 48 hr by SRB assay; conditions: M14, 48 h, read-out: GI
# NCI-H23 = test: Growth inhibition of Homo sapiens (human) NCI-H23 cells at 10 uM after 48 hr by SRB assay; conditions: NCI-H23, 48 h, read-out: GI
# KM12 = test: Growth inhibition of Homo sapiens (human) KM12 cells at 10 uM after 48 hr by SRB assay; conditions: KM12, 48 h, read-out: GI
# SF-295 = test: Growth inhibition of Homo sapiens (human) SF295 cells at 10 uM after 48 hr by SRB assay; conditions: SF-295, 48 h, read-out: GI
# UACC-62 = test: Growth inhibition of Homo sapiens (human) UACC62 cells at 10 uM after 48 hr by SRB assay; conditions: UACC-62, 48 h, read-out: GI
# T47D = test: Growth inhibition of Homo sapiens (human) T47D cells at 10 uM after 48 hr by SRB assay; conditions: read-out: GI
# HL-60(TB) = test: Growth inhibition of Homo sapiens (human) HL-60(TB) cells at 10 uM after 48 hr by SRB assay; conditions: HL-60, 48 h, read-out: GI
# UO-31 = test: Growth inhibition of Homo sapiens (human) UO31 cells at 10 uM after 48 hr by SRB assay; conditions: UO-31, 48 h, read-out: GI
# MCF7 = test: Growth inhibition of Homo sapiens (human) MCF7 cells at 10 uM after 48 hr by SRB assay; conditions: MCF7, 48 h, read-out: GI
# Malme-3M = test: Growth inhibition of Homo sapiens (human) MALME-3M cells at 10 uM after 48 hr by SRB assay; conditions: read-out: GI
# MDA-MB-468 = test: Growth inhibition of Homo sapiens (human) MDA-MB-468 cells at 10 uM after 48 hr by SRB assay; conditions: MDA-MB-468, 48 h, read-out: GI
# HCT-15 = test: Growth inhibition of Homo sapiens (human) HCT15 cells at 10 uM after 48 hr by SRB assay; conditions: HCT-15, 48 h, read-out: GI
# SK-MEL-5 = test: Growth inhibition of Homo sapiens (human) SK-MEL-5 cells at 10 uM after 48 hr by SRB assay; conditions: SK-MEL-5, 48 h, read-out: GI
compound,measurement,setting,value
COc1ccc(OC)c(/C=C/c2nnc(Nc3ccccc3)o2)c1,MFC,Candida albicans [1],50 µg/mL
same,MIC,Candida albicans [1],50 µg/mL
same,Ratio,Pseudomonas aeruginosa [2],4
same,MBC,Bacillus subtilis,25 µg/mL
same,MIC,Bacillus subtilis,12.5 µg/mL
same,inhibition of growth at 10 µM,HOP-92,37.5%
same,MBC,Staphylococcus aureus [3],50 µg/mL
same,MIC,Staphylococcus aureus [3],25 µg/mL
same,MBC,Escherichia coli,50 µg/mL
same,MIC,Escherichia coli,50 µg/mL
same,MBC,Pseudomonas aeruginosa [4],25 µg/mL
same,MIC,Pseudomonas aeruginosa [4],12.5 µg/mL
COc1ccc(OC)c(/C=C/c2nnc(SCC(=O)c3cc(O)ccc3O)n2-c2ccc(Cl)cc2)c1,MFC,Candida albicans [1],50 µg/mL
same,MIC,Candida albicans [1],25 µg/mL
same,Ratio,Pseudomonas aeruginosa [2],4
same,MBC,Bacillus subtilis,25 µg/mL
same,MIC,Bacillus subtilis,12.5 µg/mL
same,MBC,Staphylococcus aureus [3],50 µg/mL
same,MIC,Staphylococcus aureus [3],50 µg/mL
same,MBC,Escherichia coli,50 µg/mL
same,MIC,Escherichia coli,25 µg/mL
same,MBC,Pseudomonas aeruginosa [4],25 µg/mL
same,MIC,Pseudomonas aeruginosa [4],12.5 µg/mL
COc1ccc(OC)c(/C=C/c2nnc(SCC(=O)c3cc(O)ccc3O)n2-c2ccc(C)cc2)c1,Activity,Candida albicans [5],40%
same,MFC,Candida albicans [1],25 µg/mL
same,MIC,Candida albicans [1],12.5 µg/mL
same,MBC,Bacillus subtilis,50 µg/mL
same,MIC,Bacillus subtilis,25 µg/mL
same,MBC,Staphylococcus aureus [3],25 µg/mL
same,MIC,Staphylococcus aureus [3],12.5 µg/mL
same,MBC,Escherichia coli,50 µg/mL
same,MIC,Escherichia coli,25 µg/mL
same,MBC,Pseudomonas aeruginosa [4],50 µg/mL
same,MIC,Pseudomonas aeruginosa [4],50 µg/mL
same,Activity,Staphylococcus aureus [6],40%
COc1ccc(OC)c(/C=C/c2nnc(SC)n2-c2ccc(Cl)cc2)c1,MFC,Candida albicans [1],100 µg/mL
same,MIC,Candida albicans [1],50 µg/mL
same,inhibition of growth at 10 µM,K562,69.3%
same,inhibition of growth at 10 µM,CAKI-1,35.5%
same,inhibition of growth at 10 µM,RXF 393,40.3%
same,inhibition of growth at 10 µM,HCT-116,40.2%
same,inhibition of growth at 10 µM,PC-3,61.1%
same,inhibition of growth at 10 µM,ACHN,32.1%
same,MBC,Bacillus subtilis,100 µg/mL
same,MIC,Bacillus subtilis,100 µg/mL
same,inhibition of growth at 10 µM,EKVX,38.6%
same,inhibition of growth at 10 µM,MDA-MB-435,91.3%
same,inhibition of growth at 10 µM,IGROV-1,38.2%
same,inhibition of growth at 10 µM,A549,35.2%
same,inhibition of growth at 10 µM,SR,58.5%
same,inhibition of growth at 10 µM,M14,40%
same,inhibition of growth at 10 µM,NCI-H23,40.3%
same,MBC,Staphylococcus aureus [3],100 µg/mL
same,MIC,Staphylococcus aureus [3],100 µg/mL
same,inhibition of growth at 10 µM,KM12,46.9%
same,inhibition of growth at 10 µM,SF-295,53.2%
same,inhibition of growth at 10 µM,UACC-62,50.5%
same,inhibition of growth at 10 µM,T47D,57.2%
same,inhibition of growth at 10 µM,HL-60(TB),34.3%
same,inhibition of growth at 10 µM,UO-31,60.4%
same,inhibition of growth at 10 µM,MCF7,53.3%
same,inhibition of growth at 10 µM,Malme-3M,55.2%
same,MBC,Escherichia coli,100 µg/mL
same,MIC,Escherichia coli,100 µg/mL
same,inhibition of growth at 10 µM,MDA-MB-468,74.8%
same,inhibition of growth at 10 µM,HCT-15,41.1%
same,inhibition of growth at 10 µM,SK-MEL-5,46.6%
same,MBC,Pseudomonas aeruginosa [4],50 µg/mL
same,MIC,Pseudomonas aeruginosa [4],50 µg/mL
COc1ccc(OC)c(/C=C/c2nnc(SC)n2-c2ccc(C)cc2)c1,MFC,Candida albicans [1],50 µg/mL
same,MIC,Candida albicans [1],50 µg/mL
same,Ratio,Pseudomonas aeruginosa [2],4
same,MBC,Bacillus subtilis,50 µg/mL
same,MIC,Bacillus subtilis,50 µg/mL
same,MBC,Staphylococcus aureus [3],50 µg/mL
same,MIC,Staphylococcus aureus [3],50 µg/mL
same,MBC,Escherichia coli,50 µg/mL
same,MIC,Escherichia coli,50 µg/mL
same,MBC,Pseudomonas aeruginosa [4],25 µg/mL
same,MIC,Pseudomonas aeruginosa [4],12.5 µg/mL

# From ChEMBL document CHEMBL3046389, “Synthesis and biological evaluation of novel hydroquinone dimethyl ethers as potential anticancer and antimicrobial agents” (2013)
